Columns and labels:
[1] = molecular target: T1, N-acylethanolamine-hydrolyzing acid amidase (Homo sapiens, UniProt Q02083); assay: Inhibition of recombinant human NAAA expressed in HEK293 cells preincubated for 10 mins followed by PAMCA substrate addition after 30 mins by fluorescence assay; type: cell-based
T1 sequence (Q02083 whole entry): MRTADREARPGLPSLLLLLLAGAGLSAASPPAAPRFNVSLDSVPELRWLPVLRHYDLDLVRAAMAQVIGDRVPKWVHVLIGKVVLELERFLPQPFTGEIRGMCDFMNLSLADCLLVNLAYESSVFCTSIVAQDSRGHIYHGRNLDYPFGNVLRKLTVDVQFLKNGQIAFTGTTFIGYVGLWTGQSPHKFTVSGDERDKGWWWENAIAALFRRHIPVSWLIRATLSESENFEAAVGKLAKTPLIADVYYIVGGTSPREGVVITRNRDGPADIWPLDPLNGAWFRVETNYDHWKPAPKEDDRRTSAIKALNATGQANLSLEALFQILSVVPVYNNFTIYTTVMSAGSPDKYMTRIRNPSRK

Monoglyceride lipase [2] = molecular target: T2, Monoglyceride lipase (Homo sapiens, UniProt Q99685); assay: Inhibition of recombinant human N-terminal His6-tagged and C-terminal Strep-tagged MAGL expressed in Escherichia coli Rosetta using [3H]2-OG as substrate after 10 mins by liquid scintillation counting method
T2 sequence (Q99685 whole entry): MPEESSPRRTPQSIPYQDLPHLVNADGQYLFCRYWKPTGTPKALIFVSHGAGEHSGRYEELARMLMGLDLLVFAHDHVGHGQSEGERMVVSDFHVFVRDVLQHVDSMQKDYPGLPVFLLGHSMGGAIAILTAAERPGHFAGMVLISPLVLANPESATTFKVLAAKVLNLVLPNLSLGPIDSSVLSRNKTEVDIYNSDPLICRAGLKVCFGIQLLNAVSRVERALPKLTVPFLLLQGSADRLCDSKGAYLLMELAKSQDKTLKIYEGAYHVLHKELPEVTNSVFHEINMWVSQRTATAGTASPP

[3] = molecular target: T3, Fatty-acid amide hydrolase 1 (Rattus norvegicus, UniProt P97612); assay: Inhibition of rat brain microsomal FAAH using N-(2-hydroxyethyl)-4-pyren-1-yl-butanamide as substrate after 60 mins by RP HPLC based fluorescence assay
T3 sequence (P97612 whole entry): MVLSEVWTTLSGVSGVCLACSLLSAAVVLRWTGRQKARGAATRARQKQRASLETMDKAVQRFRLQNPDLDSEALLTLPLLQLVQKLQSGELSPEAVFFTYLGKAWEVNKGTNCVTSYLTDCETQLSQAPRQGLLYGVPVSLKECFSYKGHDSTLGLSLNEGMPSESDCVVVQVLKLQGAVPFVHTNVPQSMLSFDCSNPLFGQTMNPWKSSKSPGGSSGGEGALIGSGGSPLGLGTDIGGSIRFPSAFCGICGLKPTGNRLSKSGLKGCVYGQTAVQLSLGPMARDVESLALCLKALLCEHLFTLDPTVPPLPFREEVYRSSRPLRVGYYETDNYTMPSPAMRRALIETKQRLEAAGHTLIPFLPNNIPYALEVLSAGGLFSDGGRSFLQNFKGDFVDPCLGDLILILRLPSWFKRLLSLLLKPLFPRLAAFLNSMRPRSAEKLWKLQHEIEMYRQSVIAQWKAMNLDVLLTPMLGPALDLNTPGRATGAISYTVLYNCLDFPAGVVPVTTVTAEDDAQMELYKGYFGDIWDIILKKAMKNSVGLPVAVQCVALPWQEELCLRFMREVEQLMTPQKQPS

[4] = molecular target: T3, Fatty-acid amide hydrolase 1; assay: Inhibition of Sprague-Dawley rat brain FAAH preincubated for 10 mins followed by [3H]-anandamide substrate addition after 30 mins by liquid scintillation counting method
[5] = molecular target: T4, Fatty-acid amide hydrolase 2 (Homo sapiens, UniProt Q6GMR7); assay: Inhibition of recombinant human N-terminal FLAG-tagged/C-terminal Myc-His6 tagged FAAH2 (32 to 579 residues) expressed in COS7 cell membranes; type: cell-based
T4 sequence (Q6GMR7 whole entry): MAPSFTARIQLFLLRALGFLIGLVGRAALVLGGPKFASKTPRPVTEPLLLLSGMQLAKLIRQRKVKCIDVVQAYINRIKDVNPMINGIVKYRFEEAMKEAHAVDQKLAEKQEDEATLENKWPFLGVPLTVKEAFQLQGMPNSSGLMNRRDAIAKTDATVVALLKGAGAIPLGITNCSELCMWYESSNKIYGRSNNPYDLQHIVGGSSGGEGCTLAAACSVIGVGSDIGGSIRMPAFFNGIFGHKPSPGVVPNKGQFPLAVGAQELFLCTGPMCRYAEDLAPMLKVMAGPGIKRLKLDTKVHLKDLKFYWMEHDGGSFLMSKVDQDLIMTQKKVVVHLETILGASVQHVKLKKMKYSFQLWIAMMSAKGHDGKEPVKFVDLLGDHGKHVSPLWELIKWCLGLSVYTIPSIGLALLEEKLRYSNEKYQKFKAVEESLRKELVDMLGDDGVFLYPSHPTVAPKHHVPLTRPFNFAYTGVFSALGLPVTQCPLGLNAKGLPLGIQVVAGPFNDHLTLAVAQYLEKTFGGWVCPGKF

Monoglyceride lipase [6] = molecular target: T5, Monoglyceride lipase (Rattus norvegicus, UniProt Q8R431); assay: Inhibition of rat cerebellar membranes MAGL-like activity preincubated for 30 mins followed by 2-AG substrate addition after 90 mins by HPLC analysis; set-up: species or system Cerebellum, Membrane
T5 sequence (Q8R431 whole entry): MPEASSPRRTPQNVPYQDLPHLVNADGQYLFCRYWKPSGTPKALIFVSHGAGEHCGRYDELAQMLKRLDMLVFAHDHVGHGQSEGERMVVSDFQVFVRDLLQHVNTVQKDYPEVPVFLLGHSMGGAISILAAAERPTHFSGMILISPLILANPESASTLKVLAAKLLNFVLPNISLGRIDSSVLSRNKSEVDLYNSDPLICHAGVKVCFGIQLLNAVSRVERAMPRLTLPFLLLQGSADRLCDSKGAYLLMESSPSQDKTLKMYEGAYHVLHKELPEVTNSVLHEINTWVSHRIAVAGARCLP

[7] = molecular target: T3, Fatty-acid amide hydrolase 1; assay: Inhibition of FAAH in Wistar rat brain membranes using [3H]-anandamide as substrate preincubated for 10 mins followed by substrate addition measured after 4 mins by liquid scintillation counting method; type: cell membranes, Membrane
Monoglyceride lipase [8] = molecular target: T5, Monoglyceride lipase; assay: Inhibition of recombinant rat N-terminal histidine tagged MAGL expressed in Escherichia coli Rosetta 2 (DE3) pLysS cells preincubated for 10 mins followed by 2-OG substrate addition after 10 mins by LC/MS analysis
[9] = molecular target: T3, Fatty-acid amide hydrolase 1; assay: Inhibition of rat FAAH assessed as reduction in [14C]oleamide conversion to oleic acid by Lineweaver-Burk plot analysis
Monoglyceride lipase [10] = molecular target: T5, Monoglyceride lipase; assay: Inhibition of rat MAGL
Monoglyceride lipase [11] = molecular target: T6, Monoglyceride lipase (Mus musculus, UniProt O35678); assay: Inhibition of mouse MAGL
T6 sequence (O35678 whole entry): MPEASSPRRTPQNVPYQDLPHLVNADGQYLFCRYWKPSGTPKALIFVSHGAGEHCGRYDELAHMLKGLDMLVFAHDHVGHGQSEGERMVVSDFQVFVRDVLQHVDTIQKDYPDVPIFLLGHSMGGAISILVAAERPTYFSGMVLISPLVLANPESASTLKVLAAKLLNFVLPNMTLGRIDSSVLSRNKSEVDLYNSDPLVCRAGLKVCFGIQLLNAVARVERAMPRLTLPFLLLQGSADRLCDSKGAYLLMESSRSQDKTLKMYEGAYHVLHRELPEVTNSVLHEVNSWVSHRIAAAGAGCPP

Monoglyceride lipase [12] = molecular target: T5, Monoglyceride lipase; assay: Inhibition of rat MAGL preincubated for 30 mins followed by FP-Rh addition after 30 mins by gel-based ABPP assay
Monoglyceride lipase [13] = molecular target: T6, Monoglyceride lipase; assay: Inhibition of mouse MAGL preincubated for 30 mins followed by FP-Rh addition after 30 mins by gel-based ABPP assay
Monoglyceride lipase [14] = molecular target: T5, Monoglyceride lipase; assay: Inhibition of recombinant rat MAGL expressed in Escherichia coli using 2-AG as substrate
[15] = Half life in mouse plasma; type: ADME, cell-free
Homo sapiens [16] = species: Homo sapiens; assay: Selectivity index, ratio of IC50 for FAAH (unknown origin) to IC50 for human MAGL
Homo sapiens [17] = species: Homo sapiens; assay: Selectivity index, ratio of IC50 for ABHD6 (unknown origin) to IC50 for human MAGL

CC(C)(C)[C@@H]1OC(=O)[C@@H]1NC(=O)OCCCCCc1ccccc1
IC50 [1]: 0.302 µM

CCN(CC)C(=S)SSC(=S)N(CC)CC
IC50 (Monoglyceride lipase [2]): 0.36 µM

O=C(NCCCCCCCn1nnc(-c2cccc(Cl)c2)n1)Oc1cccnc1
IC50 [3]: 0.0053 µM

O=C(NCCCCCCCCn1nnc(-c2ccccc2)n1)Oc1ccccc1
IC50 [3]: 0.11 µM

O=C(NC1CCCCC1)OCc1cn(-c2ccccc2)nn1
IC50 [4]: 0.381 µM

O=C(CCCCCCc1ccccc1)c1ncc(-c2ccccn2)o1
IC50 [5]: 0.0134 µM

COc1ccc(Cn2cc(CNC(=O)OCc3cn(Cc4cccc(OC)c4)nn3)nn2)cc1
IC50 [4]: 0.0058 µM

O=C(CCCCCCC1CCCCC1)N[C@H]1CNC1=O
IC50 [1]: 0.28 µM

CCCCCCCCCC(=O)N[C@H]1CNC1=O
IC50 ([1]; hek293): 0.24 µM

CCN1C(=O)C=CC1=O [N-ETHYLMALEIMIDE]
IC50 (Monoglyceride lipase [6]): 53 µM

O=C(NC1CCCCC1)Oc1ccc(O)c(-c2ccccc2)c1
IC50 [7]: 0.03 µM

CCCCCCCCn1sccc1=O
IC50 (Monoglyceride lipase [8]): 0.088 µM

O=C(CCCCc1ccccc1)c1nc2ncccc2o1
Ki [9]: 0.0003 µM

O=C(NC1CCCCC1)OCc1cn(Cc2ccccc2)nn1
IC50 [4]: 0.0262 µM

O=C(NCCCCCCCn1nnc(-c2ccccc2)n1)Oc1ccccc1
IC50 [3]: 0.081 µM

O=C(N1CCN(C(c2ccccc2)c2ccccc2)CC1)n1cncn1
IC50 (Monoglyceride lipase [10]): 0.000589 µM
IC50 (Monoglyceride lipase [11]): 0.000309 µM

CN(Cc1cccc(-c2ccncc2)c1)C(=O)OC(C(F)(F)F)C(F)(F)F
IC50 (Monoglyceride lipase [12]): 0.385 µM

c1ccc(SSc2ccccc2)cc1
IC50 (Monoglyceride lipase [2]): 1.6 µM

O=C(NC1CCCCC1)OCc1ncn(Cc2ccccc2)n1
IC50 [4]: 51.5 µM

O=C(OC(C(F)(F)F)C(F)(F)F)N1CCC(C(O)(c2ccc3c(c2)OCO3)c2ccc3c(c2)OCO3)CC1
IC50 (Monoglyceride lipase [13]): 0.015 µM
IC50 (Monoglyceride lipase [12]): 0.043 µM

CC(C)=CCC[C@@H](C)[C@@H]1CCC[C@]2(C)C3=C(CC[C@@]12C)[C@@]1(C)CC[C@H](O)C(C)(C)[C@@H]1CC3
IC50 (Monoglyceride lipase [14]): 0.315 µM

O=C(CCc1ccccc1)N[C@H]1COC1=O
half-life [15]: < 1 min

O=C(N1CCC(C(c2ccc3c(c2)OCO3)c2ccc3c(c2)OCO3)CC1)n1cncn1
IC50 (Monoglyceride lipase [10]): 0.000214 µM
IC50 (Monoglyceride lipase [11]): 0.000275 µM
Ratio IC50 (Homo sapiens [16]): 11200
Ratio IC50 (Homo sapiens [17]): 60
